Experiments:
CK1ϵ = CK1ϵ (Homo sapiens, UniProt P49674); assay: CK1ϵ kinase assay (Caliper LABCHIP electrophoretic separation of fluoresceinated peptide substrate and product); assay type: biochemical; details: 200 pM CK1ϵ, 50 μM ATP, 1.5 μM peptide substrate, 22 hours at room temperature; read-out: CK1ε (IC50)
Procedure: (§1) CK1ϵ and CK1δ Kinase Assays
(§2) The kinase assay was performed in V-bottom 384-well plates.
(§3) The reaction was incubated at room temperature for 22 hours and terminated by adding 45 μl of 35 mM EDTA to each sample. The reaction mixture was analyzed on the Caliper LABCHIP®3000 (Caliper, Hopkinton, Mass.) by electrophoretic separation of the unphosphorylated substrate and phosphorylated product. […] Compounds were dissolved at 10 mM in dimethylsulfoxide (DMSO) and evaluated at eleven concentrations. IC50 values were derived by non-linear regression analysis.

CK1δ = CK1δ (Homo sapiens, UniProt P48730); assay: CK1δ kinase assay (Caliper LABCHIP electrophoretic separation of fluoresceinated peptide substrate and product); assay type: biochemical; details: 200 pM CK1δ, 50 μM ATP, 1.5 μM peptide substrate, 22 hours at room temperature
Sequence of CK1δ (P48730 whole entry): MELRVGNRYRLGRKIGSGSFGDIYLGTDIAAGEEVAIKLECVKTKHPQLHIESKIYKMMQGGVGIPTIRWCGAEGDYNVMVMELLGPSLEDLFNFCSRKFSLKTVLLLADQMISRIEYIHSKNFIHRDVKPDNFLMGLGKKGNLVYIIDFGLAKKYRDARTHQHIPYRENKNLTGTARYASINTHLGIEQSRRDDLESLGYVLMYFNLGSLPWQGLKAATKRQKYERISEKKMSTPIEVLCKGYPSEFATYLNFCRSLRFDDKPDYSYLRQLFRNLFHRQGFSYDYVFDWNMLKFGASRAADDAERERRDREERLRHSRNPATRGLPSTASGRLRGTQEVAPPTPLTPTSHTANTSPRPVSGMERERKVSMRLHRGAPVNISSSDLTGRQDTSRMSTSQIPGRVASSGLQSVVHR
Procedure: as §1, §2, §3

Sequence of CK1ϵ (P49674 whole entry): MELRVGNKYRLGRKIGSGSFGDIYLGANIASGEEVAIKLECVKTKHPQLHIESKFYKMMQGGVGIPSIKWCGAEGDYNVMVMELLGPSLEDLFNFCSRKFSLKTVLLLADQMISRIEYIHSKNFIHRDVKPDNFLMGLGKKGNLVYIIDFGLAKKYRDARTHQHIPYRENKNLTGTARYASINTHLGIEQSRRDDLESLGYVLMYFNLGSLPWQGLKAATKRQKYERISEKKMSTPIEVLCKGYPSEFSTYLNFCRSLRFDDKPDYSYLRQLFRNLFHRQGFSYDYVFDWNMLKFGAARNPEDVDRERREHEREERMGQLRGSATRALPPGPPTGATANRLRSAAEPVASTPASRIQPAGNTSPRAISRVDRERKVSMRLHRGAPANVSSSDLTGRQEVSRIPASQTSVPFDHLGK

SMILES	IC50 (CK1ϵ) [nM]	IC50 (CK1δ) [nM]
O=C(Nc1cn2nc(-c3c(-c4ccc(F)cc4)nn4c3CNCC4)ccc2n1)c1ccnc(F)c1 [Example 1, 2-Fluoro-N-(6-(2-(4-fluorophenyl)-4,5,6,7-tetrahydropyrazolo[1,5-a]pyrazin-3-yl)imidazo[1,2-b]pyridazin-2-yl)isonicotinamide]	3.7	0.5
Cc1nc(-c2ccncc2)sc1C(=O)Nc1cn2nc(-c3c(-c4ccc(F)cc4)nn4c3CNCC4)ccc2n1 [Example 2, N-(6-(2-(4-Fluorophenyl)-4,5,6,7-tetrahydropyrazolo[1,5-a]pyrazin-3-yl)imidazo[1,2-b]pyridazin-2-yl)-4-methyl-2-(pyridin-4-yl)thiazole-5-carboxamide]	2.4	0.2
O=C(Nc1cn2nc(-c3c(-c4ccc(F)cc4)nn4c3CNCC4)ccc2n1)c1ccncc1 [Example 3, N-(6-(2-(4-Fluorophenyl)-4,5,6,7-tetrahydropyrazolo[1,5-a]pyrazin-3-yl)imidazo[1,2-b]pyridazin-2-yl)isonicotinamide]	5.1	0.5
O=C(Nc1cn2nc(-c3c(-c4ccc(F)cc4)nn4c3CNCC4)ccc2n1)c1ccnc(N2CCOCC2)c1 [Example 4, N-(6-(2-(4-Fluorophenyl)-4,5,6,7-tetrahydropyrazolo[1,5-a]pyrazin-3-yl)imidazo[1,2-b]pyridazin-2-yl)-2-morpholinoisonicotinamide]	1.3	0.3
O=C(Nc1cn2nc(-c3c(-c4ccc(F)cc4)nn4c3CNCC4)ccc2n1)c1cc(F)nc(F)c1 [Example 5, 2,6-Difluoro-N-(6-(2-(4-fluorophenyl)-4,5,6,7-tetrahydropyrazolo[1,5-a]pyrazin-3-yl)imidazo[1,2-b]pyridazin-2-yl)isonicotinamide]	4.7	0.4
O=C(Nc1cn2nc(-c3c(-c4ccc(F)cc4)nn4c3CNCC4)ccc2n1)c1ccnc(-c2cccnc2)c1 [Example 6, N-(6-(2-(4-Fluorophenyl)-4,5,6,7-tetrahydropyrazolo[1,5-a]pyrazin-3-yl)imidazo[1,2-b]pyridazin-2-yl)-[2,3′-bipyridine]-4-carboxamide]	2.3	0.3
O=C(Nc1cn2nc(-c3c(-c4ccc(F)cc4)nn4c3CNCC4)ccc2n1)c1ccnc(C(F)(F)F)c1 [Example 10, N-(6-(2-(4-Fluorophenyl)-4,5,6,7-tetrahydropyrazolo[1,5-a]pyrazin-3-yl)imidazo[1,2-b]pyridazin-2-yl)-2-(trifluoromethyl)isonicotinamide]	12.6	2.1
Cc1nc(C(F)(F)F)ccc1C(=O)Nc1cn2nc(-c3c(-c4ccc(F)cc4)nn4c3CNCC4)ccc2n1 [Example 11, N-(6-(2-(4-Fluorophenyl)-4,5,6,7-tetrahydropyrazolo[1,5-a]pyrazin-3-yl)imidazo[1,2-b]pyridazin-2-yl)-2-methyl-6-(trifluoromethyl)nicotinamide]	15.2	1.8
CC(=O)N1CCn2nc(-c3ccc(F)cc3)c(-c3ccc4nc(NC(=O)c5ccnc(F)c5)cn4n3)c2C1 [Example 12, N-(6-(5-Acetyl-2-(4-fluorophenyl)-4,5,6,7-tetrahydropyrazolo[1,5-a]pyrazin-3-yl)imidazo[1,2-b]pyridazin-2-yl)-2-fluoroisonicotinamide]	2	0.3
O=C(Nc1cn2nc(-c3c(-c4ccc(F)cc4)nn4c3CN(C(=O)c3ccncc3)CC4)ccc2n1)c1ccnc(F)c1 [Example 13, 2-Fluro-N-(6-(2-(4-fluorophenyl)-5-isonicotinoyl-4,5,6,7-tetrahydropyrazolo[1,5-a]pyrazin-3-yl)imidazo[1,2-b]pyridazin-2-yl) isonicotinamide]	4.5	0.5
O=C(Nc1cn2nc(-c3c(-c4ccc(F)cc4)nn4c3CN(C(=O)c3ccc(F)cc3)CC4)ccc2n1)c1ccnc(F)c1 [Example 14, 2-Fluoro-N-(6-(5-(4-fluorobenzoyl)-2-(4-fluorophenyl)-4,5,6,7-tetrahydropyrazolo[1,5-a]pyrazin-3-yl)imidazo[1,2-b]pyridazin-2-yl) isonicotinamide]	3.1	0.5
O=C(Nc1cn2nc(-c3c(-c4ccc(F)cc4)nn4c3CN(C(=O)CC(F)(F)F)CC4)ccc2n1)c1ccnc(F)c1 [Example 15, 2-Fluoro-N-(6-(2-(4-fluorophenyl)-5-(3,3,3-trifluoropropanoyl)-4,5,6,7-tetrahydropyrazolo [1,5-a]pyrazin-3-yl)imidazo[1,2-b]pyridazin-2-yl)isonicotinamide]	0.7	0.2
O=C(Nc1cn2nc(-c3c(-c4ccc(F)cc4)nn4c3CN(C(=O)CCC(F)(F)F)CC4)ccc2n1)c1ccnc(F)c1 [Example 16, 2-Fluoro-N-(6-(2-(4-fluorophenyl)-5-(4,4,4-trifluorobutanoyl)-4,5,6,7-tetrahydropyrazolo[1,5-a]pyrazin-3-yl)imidazo[1,2-b]pyridazin-2-yl) isonicotinamide]	4.9	0.8
O=C(Nc1cn2nc(-c3c(-c4ccc(F)cc4)nn4c3CN(C(=O)c3ccc(F)c(F)c3)CC4)ccc2n1)c1ccnc(F)c1 [Example 18, N-(6-(5-(3,4-Difluorobenzoyl)-2-(4-fluorophenyl)-4,5,6,7-tetrahydropyrazolo[1,5-a]pyrazin-3-yl)imidazo[1,2-b]pyridazin-2-yl)-2-fluoroisonicotinamide]	5.6	0.5
O=C(Nc1cn2nc(-c3c(-c4ccc(F)cc4)nn4c3CN(C(=O)c3cccc(F)c3)CC4)ccc2n1)c1ccnc(F)c1 [Example 19, 2-Fluoro-N-(6-(5-(3-fluorobenzoyl)-2-(4-fluorophenyl)-4,5,6,7-tetrahydropyrazolo[1,5-a]pyrazin-3-yl)imidazo[1,2-b]pyridazin-2-yl) isonicotinamide]	2.7	0.2
O=C(Nc1cn2nc(-c3c(-c4ccc(F)cc4)nn4c3CN(C(=O)c3ccnc(F)c3)CC4)ccc2n1)c1ccnc(F)c1 [Example 20, 2-Fluoro-N-(6-(5-(2-fluoroisonicotinoyl)-2-(4-fluorophenyl)-4,5,6,7-tetrahydropyrazolo[1,5-a]pyrazin-3-yl)imidazo[1,2-b]pyridazin-2-yl) isonicotinamide]	7	0.5
O=C(Nc1cn2nc(-c3c(-c4ccc(F)cc4)nn4c3CN(C(=O)c3cccnc3)CC4)ccc2n1)c1ccnc(F)c1 [Example 21, 2-Fluoro-N-(6-(2-(4-fluorophenyl)-5-nicotinoyl-4,5,6,7-tetrahydropyrazolo[1,5-a]pyrazin-3-yl)imidazo[1,2-b]pyridazin-2-yl) isonicotinamide]	3	0.2
CC(C)C(=O)N1CCn2nc(-c3ccc(F)cc3)c(-c3ccc4nc(NC(=O)c5ccnc(F)c5)cn4n3)c2C1 [Example 22, 2-Fluoro-N-(6-(2-(4-fluorophenyl)-5-isobutyryl-4,5,6,7-tetrahydropyrazolo[1,5-a]pyrazin-3-yl)imidazo[1,2-b]pyridazin-2-yl) isonicotinamide]	3.1	0.6
O=C(Nc1cn2nc(-c3c(-c4ccc(F)cc4)nn4c3CN(C(=O)c3ccccc3F)CC4)ccc2n1)c1ccnc(F)c1 [Example 23, 2-Fluoro-N-(6-(5-(2-fluorobenzoyl)-2-(4-fluorophenyl)-4,5,6,7-tetrahydropyrazolo[1,5-a]pyrazin-3-yl)imidazo[1,2-b]pyridazin-2-yl) isonicotinamide]	0.4	0.1
N#CCC(=O)N1CCn2nc(-c3ccc(F)cc3)c(-c3ccc4nc(NC(=O)c5ccnc(F)c5)cn4n3)c2C1 [Example 24, N-(6-(5-(2-Cyanoacetyl)-2-(4-fluorophenyl)-4,5,6,7-tetrahydropyrazolo[1,5-a]pyrazin-3-yl)imidazo[1,2-b]pyridazin-2-yl)-2-fluoroisonicotinamide]	2.9	0.4
CN1CCn2nc(-c3ccc(F)cc3)c(-c3ccc4nc(NC(=O)c5ccnc(F)c5)cn4n3)c2C1 [Example 26, 2-Fluoro-N-(6-(2-(4-fluorophenyl)-5-methyl-4,5,6,7-tetrahydropyrazolo [1,5-a]pyrazin-3-yl)imidazo[1,2-b]pyridazin-2-yl)isonicotinamide]	7.3	0.4
O=C(Nc1cn2nc(-c3c(-c4ccc(F)cc4)nn4c3CN(CCC(F)(F)F)CC4)ccc2n1)c1ccnc(F)c1 [Example 27, 2-Fluoro-N-(6-(2-(4-fluorophenyl)-5-(3,3,3-trifluoropropyl)-4,5,6,7-tetrahydropyrazolo[1,5-a]pyrazin-3-yl)imidazo[1,2-b]pyridazin-2-yl)isonicotinamide]	3.6	0.5
O=C(Nc1cn2nc(-c3c(-c4ccc(F)cc4)nn4c3CN(CCCF)CC4)ccc2n1)c1ccnc(F)c1 [Example 28, 2-Fluoro-N-(6-(2-(4-fluorophenyl)-5-(3-fluoropropyl)-4,5,6,7-tetrahydropyrazolo[1,5-a]pyrazin-3-yl)imidazo[1,2-b]pyridazin-2-yl)isonicotinamide]	2.5	0.2
O=C(Nc1cn2nc(-c3c(-c4ccc(F)cc4)nn4c3CN(C3CCC3)CC4)ccc2n1)c1ccnc(F)c1 [Example 29, N-(6-(5-Cyclobutyl-2-(4-fluorophenyl)-4,5,6,7-tetrahydropyrazolo[1,5-a]pyrazin-3-yl)imidazo[1,2-b]pyridazin-2-yl)-2-fluoroisonicotinamide]	6	0.4
O=C(Nc1cn2nc(-c3c(-c4ccc(F)cc4)nn4c3CN(C3COC3)CC4)ccc2n1)c1ccnc(F)c1 [Example 30, 2-Fluoro-N-(6-(2-(4-fluorophenyl)-5-(oxetan-3-yl)-4,5,6,7-tetrahydropyrazolo[1,5-a]pyrazin-3-yl)imidazo[1,2-b]pyridazin-2-yl)isonicotinamide]	6.5	0.5

Reference: patent US9956220B2, “Imidazo-pyridazine derivatives as casein kinase 1 δ/ϵ inhibitors” (Bristol-Myers Squibb Company, priority 2014, dated 2018)
